Experimental data from ChEMBL document CHEMBL5465560, “Selectivity Literature for EUbOPEN Chemogenomic Library” (2024).
Each block holds one compound with its values, some of them ahead of it.

What was measured:
[1] = biological target: Cyclin-dependent kinase 5 (Homo sapiens, UniProt Q00535); settings: at 10 µM
[2] = biological target: Serine/threonine-protein kinase MARK1 (Homo sapiens) (UniProt Q9P0L2); settings: at 10 µM
[3] = biological target: Mitogen-activated protein kinase 8 (Homo sapiens, UniProt P45983); assay: Selectivity interaction (Millipore kinase profiler) EUB0000124b MAPK8; settings: at 10 µM
[4] = biological target: T1, Mitogen-activated protein kinase kinase kinase 3 (Homo sapiens) (UniProt Q99759); assay: Selectivity interaction (Ambit KINOMEscan and KiNATiv profiling in Jurkat cells) EUB0000090b MAP3K3; format: cell-based; settings: at 1 µM
T1 sequence (whole entry): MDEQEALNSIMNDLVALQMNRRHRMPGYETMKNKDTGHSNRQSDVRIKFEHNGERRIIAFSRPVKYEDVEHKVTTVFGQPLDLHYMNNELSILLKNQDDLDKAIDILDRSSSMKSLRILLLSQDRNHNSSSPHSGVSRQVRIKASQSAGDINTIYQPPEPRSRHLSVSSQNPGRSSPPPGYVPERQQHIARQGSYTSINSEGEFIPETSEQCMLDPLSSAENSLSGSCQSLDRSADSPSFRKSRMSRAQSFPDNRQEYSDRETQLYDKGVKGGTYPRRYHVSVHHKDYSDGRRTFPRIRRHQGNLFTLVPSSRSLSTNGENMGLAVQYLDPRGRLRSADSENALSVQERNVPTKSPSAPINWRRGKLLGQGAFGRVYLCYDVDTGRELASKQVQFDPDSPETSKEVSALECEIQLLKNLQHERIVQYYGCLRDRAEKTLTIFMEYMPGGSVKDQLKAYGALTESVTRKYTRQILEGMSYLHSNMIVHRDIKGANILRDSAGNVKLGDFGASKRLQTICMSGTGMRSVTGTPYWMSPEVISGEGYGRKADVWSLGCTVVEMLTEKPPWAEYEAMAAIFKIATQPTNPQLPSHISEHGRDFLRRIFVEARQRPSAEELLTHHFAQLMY

[5] = biological target: T2, Serine/threonine-protein kinase RIO1 (Homo sapiens) (UniProt Q9BRS2); assay: Selectivity interaction (Ambit KINOMEscan and KiNATiv profiling in Jurkat cells) EUB0000090b RIOK1; format: cell-based; settings: at 1 µM
T2 sequence (whole entry): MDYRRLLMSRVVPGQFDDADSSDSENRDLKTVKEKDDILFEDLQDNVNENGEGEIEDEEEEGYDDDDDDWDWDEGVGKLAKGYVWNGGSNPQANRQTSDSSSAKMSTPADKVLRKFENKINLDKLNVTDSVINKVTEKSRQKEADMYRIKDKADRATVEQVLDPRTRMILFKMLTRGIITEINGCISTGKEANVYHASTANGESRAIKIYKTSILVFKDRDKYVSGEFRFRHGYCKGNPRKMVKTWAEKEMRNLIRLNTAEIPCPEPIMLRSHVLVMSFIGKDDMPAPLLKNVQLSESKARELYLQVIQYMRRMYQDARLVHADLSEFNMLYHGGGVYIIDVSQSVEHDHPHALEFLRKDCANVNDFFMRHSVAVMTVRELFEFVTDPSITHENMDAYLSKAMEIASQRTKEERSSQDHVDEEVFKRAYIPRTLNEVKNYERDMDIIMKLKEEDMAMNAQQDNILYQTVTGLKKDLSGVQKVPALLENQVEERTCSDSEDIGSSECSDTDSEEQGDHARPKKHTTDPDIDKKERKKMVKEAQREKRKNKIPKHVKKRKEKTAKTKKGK

[6] = biological target: T3, Discoidin domain-containing receptor 2 (Homo sapiens) (UniProt Q16832); assay: Selectivity interaction (Ambit KINOMEscan and KiNATiv profiling in Jurkat cells) EUB0000090b DDR2; format: cell-based; settings: at 1 µM
T3 sequence (whole entry): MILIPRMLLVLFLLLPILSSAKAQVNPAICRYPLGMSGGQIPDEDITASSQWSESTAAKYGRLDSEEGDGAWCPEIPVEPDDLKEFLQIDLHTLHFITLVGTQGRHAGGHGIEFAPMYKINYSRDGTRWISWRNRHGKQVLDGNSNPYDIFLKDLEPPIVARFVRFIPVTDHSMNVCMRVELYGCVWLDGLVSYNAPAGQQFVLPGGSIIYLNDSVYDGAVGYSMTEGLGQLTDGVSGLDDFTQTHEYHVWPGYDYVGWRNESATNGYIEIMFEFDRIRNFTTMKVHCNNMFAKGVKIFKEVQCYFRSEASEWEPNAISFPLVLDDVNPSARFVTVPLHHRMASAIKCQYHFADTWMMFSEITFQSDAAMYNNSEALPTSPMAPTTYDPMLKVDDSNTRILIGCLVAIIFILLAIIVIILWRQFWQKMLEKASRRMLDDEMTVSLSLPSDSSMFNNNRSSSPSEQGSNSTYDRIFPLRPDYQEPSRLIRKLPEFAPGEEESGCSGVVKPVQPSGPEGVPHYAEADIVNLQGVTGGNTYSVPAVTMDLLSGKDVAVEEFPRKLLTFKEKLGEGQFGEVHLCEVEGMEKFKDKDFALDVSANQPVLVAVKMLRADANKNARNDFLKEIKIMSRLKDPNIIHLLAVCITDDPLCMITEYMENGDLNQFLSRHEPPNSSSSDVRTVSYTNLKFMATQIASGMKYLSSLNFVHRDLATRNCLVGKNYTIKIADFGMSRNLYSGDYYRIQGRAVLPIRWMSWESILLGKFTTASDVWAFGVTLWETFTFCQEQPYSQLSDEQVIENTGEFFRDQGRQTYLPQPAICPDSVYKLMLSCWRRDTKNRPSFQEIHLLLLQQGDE

[7] = biological target: Proto-oncogene tyrosine-protein kinase receptor Ret (Homo sapiens, UniProt P07949); assay: Selectivity interaction (Kinase panel (Invitrogen)) EUB0000639a RET; settings: at 200 nM
[8] = biological target: cAMP-dependent protein kinase catalytic subunit alpha (Homo sapiens, UniProt P17612); assay: Selectivity interaction (KinomeScan (DiscoverX)) EUB0001079a PRKACA; settings: at 1 µM
[9] = biological target: Tyrosine-protein kinase Lyn (Homo sapiens, UniProt P07948); assay: Selectivity interaction (Upstate Kinase Profiler service (Millipore)) EUB0000056c LYN; settings: at 1 µM
[10] = biological target: Protein kinase C delta type (Homo sapiens) (UniProt Q05655); assay: Selectivity interaction (SelectScreen profiling (Invitrogen)) EUB0000607a PRKCD; settings: at 2 µM
Sequence of Protein kinase C delta type (Homo sapiens) (Q05655 whole entry, looked up): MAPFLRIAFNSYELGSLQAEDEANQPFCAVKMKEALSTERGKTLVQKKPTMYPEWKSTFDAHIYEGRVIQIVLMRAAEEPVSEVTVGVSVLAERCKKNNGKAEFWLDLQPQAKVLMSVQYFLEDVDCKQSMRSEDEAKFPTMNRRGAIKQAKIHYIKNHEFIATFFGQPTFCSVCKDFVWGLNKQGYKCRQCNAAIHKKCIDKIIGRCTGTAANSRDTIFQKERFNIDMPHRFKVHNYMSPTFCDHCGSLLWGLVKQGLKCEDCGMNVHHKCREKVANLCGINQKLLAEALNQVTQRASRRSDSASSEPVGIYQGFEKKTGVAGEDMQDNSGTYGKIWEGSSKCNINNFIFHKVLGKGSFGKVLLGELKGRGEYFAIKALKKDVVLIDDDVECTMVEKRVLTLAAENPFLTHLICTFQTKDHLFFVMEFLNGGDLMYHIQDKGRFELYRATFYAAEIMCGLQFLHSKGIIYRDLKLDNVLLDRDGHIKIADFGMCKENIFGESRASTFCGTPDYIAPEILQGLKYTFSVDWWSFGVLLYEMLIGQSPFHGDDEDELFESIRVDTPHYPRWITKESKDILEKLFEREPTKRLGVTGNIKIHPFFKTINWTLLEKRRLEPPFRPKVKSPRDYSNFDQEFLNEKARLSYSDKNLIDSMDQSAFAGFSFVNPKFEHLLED

Sequence of Mitogen-activated protein kinase 8 (P45983 whole entry): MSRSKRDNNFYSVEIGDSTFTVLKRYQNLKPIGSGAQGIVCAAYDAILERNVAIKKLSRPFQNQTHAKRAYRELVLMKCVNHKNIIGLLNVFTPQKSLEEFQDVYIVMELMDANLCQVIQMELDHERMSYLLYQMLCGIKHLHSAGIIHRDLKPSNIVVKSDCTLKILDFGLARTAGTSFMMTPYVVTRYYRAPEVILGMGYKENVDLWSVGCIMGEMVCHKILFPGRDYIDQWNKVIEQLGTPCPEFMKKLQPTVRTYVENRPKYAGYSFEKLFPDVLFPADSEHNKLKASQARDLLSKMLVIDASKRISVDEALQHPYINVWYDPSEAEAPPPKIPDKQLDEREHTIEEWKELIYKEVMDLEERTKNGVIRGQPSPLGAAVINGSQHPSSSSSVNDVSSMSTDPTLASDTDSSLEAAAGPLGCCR
Sequence of Cyclin-dependent kinase 5 (Q00535 whole entry, looked up): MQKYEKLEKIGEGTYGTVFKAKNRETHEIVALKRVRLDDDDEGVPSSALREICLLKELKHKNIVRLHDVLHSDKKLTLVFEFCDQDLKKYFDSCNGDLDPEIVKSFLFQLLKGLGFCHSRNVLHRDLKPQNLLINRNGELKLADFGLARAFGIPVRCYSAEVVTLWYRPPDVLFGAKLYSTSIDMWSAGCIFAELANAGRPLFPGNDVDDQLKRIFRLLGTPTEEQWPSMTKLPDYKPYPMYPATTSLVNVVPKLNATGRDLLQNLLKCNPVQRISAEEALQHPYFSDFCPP
Sequence of Proto-oncogene tyrosine-protein kinase receptor Ret (P07949 whole entry): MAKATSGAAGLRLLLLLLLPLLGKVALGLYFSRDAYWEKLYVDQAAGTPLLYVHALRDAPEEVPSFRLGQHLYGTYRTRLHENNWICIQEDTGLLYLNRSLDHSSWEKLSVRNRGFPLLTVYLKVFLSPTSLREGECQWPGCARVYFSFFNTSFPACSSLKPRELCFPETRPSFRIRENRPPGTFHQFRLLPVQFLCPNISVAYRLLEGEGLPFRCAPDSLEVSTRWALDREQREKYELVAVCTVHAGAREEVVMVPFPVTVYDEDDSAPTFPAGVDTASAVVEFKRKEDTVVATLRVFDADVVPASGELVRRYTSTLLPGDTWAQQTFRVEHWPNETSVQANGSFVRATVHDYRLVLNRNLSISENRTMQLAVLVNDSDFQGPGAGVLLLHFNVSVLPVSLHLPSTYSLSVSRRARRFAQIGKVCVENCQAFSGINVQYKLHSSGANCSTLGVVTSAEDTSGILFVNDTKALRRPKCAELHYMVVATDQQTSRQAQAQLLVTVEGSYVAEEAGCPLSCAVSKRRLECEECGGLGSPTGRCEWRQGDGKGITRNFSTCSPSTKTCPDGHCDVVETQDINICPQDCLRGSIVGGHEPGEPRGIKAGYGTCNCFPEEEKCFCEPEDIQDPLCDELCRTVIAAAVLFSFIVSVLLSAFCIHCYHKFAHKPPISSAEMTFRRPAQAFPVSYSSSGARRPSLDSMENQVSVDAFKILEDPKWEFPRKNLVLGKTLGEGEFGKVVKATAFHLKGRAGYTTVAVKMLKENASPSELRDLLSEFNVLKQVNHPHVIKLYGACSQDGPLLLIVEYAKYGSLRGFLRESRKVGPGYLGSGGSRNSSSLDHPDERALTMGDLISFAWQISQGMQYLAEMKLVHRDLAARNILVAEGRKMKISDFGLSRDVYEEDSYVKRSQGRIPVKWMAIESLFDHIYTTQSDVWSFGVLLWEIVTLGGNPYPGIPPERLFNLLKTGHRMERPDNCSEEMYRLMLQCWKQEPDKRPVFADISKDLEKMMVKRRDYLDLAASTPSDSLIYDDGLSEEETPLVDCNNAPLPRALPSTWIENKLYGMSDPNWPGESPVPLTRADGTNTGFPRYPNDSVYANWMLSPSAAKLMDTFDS
Sequence of Serine/threonine-protein kinase MARK1 (Homo sapiens) (Q9P0L2 whole entry, looked up): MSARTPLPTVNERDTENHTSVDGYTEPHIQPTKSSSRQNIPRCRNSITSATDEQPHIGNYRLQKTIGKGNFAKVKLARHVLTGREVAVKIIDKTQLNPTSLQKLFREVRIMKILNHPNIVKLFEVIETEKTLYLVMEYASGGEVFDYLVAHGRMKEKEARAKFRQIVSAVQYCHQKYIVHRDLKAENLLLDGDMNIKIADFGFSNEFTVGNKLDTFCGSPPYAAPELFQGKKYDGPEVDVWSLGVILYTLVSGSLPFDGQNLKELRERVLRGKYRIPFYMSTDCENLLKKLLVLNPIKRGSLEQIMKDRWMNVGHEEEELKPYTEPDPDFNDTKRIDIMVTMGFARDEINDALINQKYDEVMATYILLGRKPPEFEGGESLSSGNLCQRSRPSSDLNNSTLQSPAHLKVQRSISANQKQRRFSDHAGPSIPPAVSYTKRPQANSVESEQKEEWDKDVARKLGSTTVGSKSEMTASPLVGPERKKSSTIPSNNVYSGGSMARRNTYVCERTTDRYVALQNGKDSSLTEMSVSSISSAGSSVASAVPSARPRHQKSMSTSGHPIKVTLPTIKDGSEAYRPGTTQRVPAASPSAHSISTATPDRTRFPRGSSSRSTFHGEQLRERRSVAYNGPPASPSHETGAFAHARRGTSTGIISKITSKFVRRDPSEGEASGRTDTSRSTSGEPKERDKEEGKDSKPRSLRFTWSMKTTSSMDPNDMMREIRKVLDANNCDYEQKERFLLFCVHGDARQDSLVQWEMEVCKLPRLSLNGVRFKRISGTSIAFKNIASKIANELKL
Sequence of Tyrosine-protein kinase Lyn (P07948 2-512 limits assumed): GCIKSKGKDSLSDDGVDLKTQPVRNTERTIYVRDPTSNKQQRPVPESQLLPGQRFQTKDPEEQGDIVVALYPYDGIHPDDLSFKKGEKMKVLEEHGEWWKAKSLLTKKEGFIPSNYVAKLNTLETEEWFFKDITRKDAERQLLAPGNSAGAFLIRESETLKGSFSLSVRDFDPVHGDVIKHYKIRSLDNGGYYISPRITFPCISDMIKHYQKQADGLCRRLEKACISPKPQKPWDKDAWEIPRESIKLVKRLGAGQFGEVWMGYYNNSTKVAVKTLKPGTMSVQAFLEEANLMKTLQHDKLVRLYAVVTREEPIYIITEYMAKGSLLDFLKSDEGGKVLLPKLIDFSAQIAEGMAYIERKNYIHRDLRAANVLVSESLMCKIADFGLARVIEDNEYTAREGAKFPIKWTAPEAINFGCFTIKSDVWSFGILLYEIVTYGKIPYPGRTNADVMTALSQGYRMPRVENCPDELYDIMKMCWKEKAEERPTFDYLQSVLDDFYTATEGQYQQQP

Compound: Cc1cc([C@@H](C)Nc2ccccc2C(=O)O)c2nc(N3CCOCC3)cc(=O)n2c1 [AZD-6482]
% of control [1]: 100%
% of control [2]: 100%

% of control [3]: 104%
Compound: CC(=O)Nc1cccc(-n2c(=O)n(C3CC3)c(=O)c3c(Nc4ccc(I)cc4F)n(C)c(=O)c(C)c32)c1

Compound: CN(C)C/C=C/C(=O)Nc1ccc(C(=O)N2CCCC(Nc3ncc(Cl)c(-c4c[nH]c5ccccc45)n3)C2)cc1 (stereo not given)
% of control [4]: 90%
% of control [5]: 100%
% of control [6]: 100%

% of inhibition [7]: 66%
Compound: CC[C@@H]1[C@H](F)C(=O)N[C@@H]1COc1nccc2cc(C(N)=O)c(OC)cc12 [ZIMLOVISERTIB]

Compound: Nc1cnc(N2CCc3cc(S(=O)(=O)Nc4c(F)cc(Cl)cc4F)cc(N4CCCC4=O)c32)nc1 [TP-020n]
% of control [8]: 100%

% of inhibition [9]: 8%
Compound: Cc1ccc(-c2ccc3c(ccc4sc5c(c43)NC[C@@H](C)NC5=O)n2)cn1

Compound: CNC(=O)Nc1ccc(-c2nc(N3CC4CCC(C3)O4)c3cnn(C4CCC5(CC4)OCCO5)c3n2)cc1
% of inhibition [10]: 16%
